In ChEMBL document CHEMBL1151728 (J Med Chem, 2008):
Active and inactive are the calls of the source. The calls are words filed in the database; no cut-off is given here.

Columns and labels:
[1] = test system: Rattus norvegicus; experiment: Effect on scopolamine-induced memory impairment in iv dosed Wistar assessed as decrease in number of errors during exploration of the bait at the end of the eight-arm radial maze for 5 days; assay type: functional, organism-based
[2] = test system: Rattus norvegicus; experiment: Effect on scopolamine-induced memory impairment in iv dosed Wistar rat assessed as decrease in time spent for exploration of the bait at the end of the eight-arm radial maze for 5 days; assay type: functional, organism-based
[3] = target: Acetylcholinesterase (Electrophorus electricus, UniProt O42275)
Description: Inhibition of Electric eel AChE

[4] = target: Butyrylcholinesterase (Equus caballus, UniProt Q9N1N9)
Description: Inhibition of BuChE from equine serum

[5] = organism: Rattus norvegicus; experiment: Hepatotoxicity in Wistar rat liver assessed as histopathological changes; assay type: toxicity, organism-based; details: in vivo

Sequence of Acetylcholinesterase (O42275 whole entry): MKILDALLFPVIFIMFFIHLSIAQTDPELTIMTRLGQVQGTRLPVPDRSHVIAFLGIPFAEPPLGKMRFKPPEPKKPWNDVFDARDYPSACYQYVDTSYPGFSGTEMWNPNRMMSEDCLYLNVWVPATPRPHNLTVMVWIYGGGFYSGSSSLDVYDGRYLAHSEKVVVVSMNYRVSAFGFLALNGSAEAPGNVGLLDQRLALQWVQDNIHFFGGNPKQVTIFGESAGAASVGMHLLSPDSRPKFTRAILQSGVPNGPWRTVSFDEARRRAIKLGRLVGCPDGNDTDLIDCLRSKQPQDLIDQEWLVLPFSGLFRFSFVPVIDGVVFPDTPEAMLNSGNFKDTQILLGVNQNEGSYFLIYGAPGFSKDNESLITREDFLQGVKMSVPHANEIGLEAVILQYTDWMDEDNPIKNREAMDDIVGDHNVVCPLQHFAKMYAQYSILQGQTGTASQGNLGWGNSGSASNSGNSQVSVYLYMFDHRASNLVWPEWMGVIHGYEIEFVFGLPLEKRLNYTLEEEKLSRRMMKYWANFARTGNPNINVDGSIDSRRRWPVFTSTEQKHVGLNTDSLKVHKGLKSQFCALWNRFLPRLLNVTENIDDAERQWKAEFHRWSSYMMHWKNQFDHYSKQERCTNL
Sequence of Butyrylcholinesterase (Q9N1N9 whole entry): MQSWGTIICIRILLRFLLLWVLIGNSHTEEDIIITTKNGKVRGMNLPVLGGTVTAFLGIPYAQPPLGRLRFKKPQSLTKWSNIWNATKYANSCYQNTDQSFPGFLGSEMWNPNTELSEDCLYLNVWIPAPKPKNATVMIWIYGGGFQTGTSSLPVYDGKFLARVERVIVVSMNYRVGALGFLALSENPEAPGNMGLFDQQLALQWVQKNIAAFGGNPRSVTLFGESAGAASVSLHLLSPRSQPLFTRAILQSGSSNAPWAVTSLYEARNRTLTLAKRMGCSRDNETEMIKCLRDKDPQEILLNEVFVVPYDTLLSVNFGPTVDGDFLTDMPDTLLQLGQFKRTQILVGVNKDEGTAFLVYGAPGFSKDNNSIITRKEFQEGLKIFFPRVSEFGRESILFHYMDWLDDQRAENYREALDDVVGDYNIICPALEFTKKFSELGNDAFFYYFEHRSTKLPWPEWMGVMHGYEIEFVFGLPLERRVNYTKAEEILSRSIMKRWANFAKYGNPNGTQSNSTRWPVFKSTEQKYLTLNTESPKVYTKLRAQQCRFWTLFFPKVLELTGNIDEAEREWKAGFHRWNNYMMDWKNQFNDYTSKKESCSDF

Structure (SMILES) | Activity [1] | Activity [2] | IC50 [3] | IC50 [4] | Activity [5]
O=[N+]([O-])OCCNCCNc1c2c(nc3ccccc13)CCCC2 | Active | Active | 9.1 nM | 7.3 nM | –
O=[N+]([O-])OCCCNCCCCNc1c2c(nc3ccccc13)CCCC2 | Active | Active | 5.6 nM | 9.9 nM | Non-toxic
O=[N+]([O-])OCCCNCCCCCCCCNc1c2c(nc3ccccc13)CCCC2 | – | – | 17.1 nM | 14.8 nM | –
O=[N+]([O-])OCCCNCCCCCNc1c2c(nc3ccccc13)CCCC2 | – | – | 15.4 nM | 14.3 nM | –
CCCNCCCCNc1c2c(nc3ccccc13)CCCC2 | inactive | inactive | 23.4 nM | 7.2 nM | –
O=C(CO[N+](=O)[O-])NCCCNc1c2c(nc3ccccc13)CCCC2 | Active | Active | 28.2 nM | 13.5 nM | –
O=[N+]([O-])OCCCCCCNCCCCCCCCNc1c2c(nc3ccccc13)CCCC2 | – | – | 19.6 nM | 12.9 nM | –
O=[N+]([O-])OCCCNCCNc1c2c(nc3ccccc13)CCCC2 | – | – | 13 nM | 18.1 nM | –
O=[N+]([O-])OCCNCCCCCNc1c2c(nc3ccccc13)CCCC2 | – | – | 21.6 nM | 13.3 nM | –
O=[N+]([O-])OCCNCCCCCCCCNc1c2c(nc3ccccc13)CCCC2 | – | – | 7.7 nM | 17 nM | –
